Series [1] relates to B. anthracis Sterne spores. Also on record: species or system Mice of the A/J strain. Particulars: mouse, in vivo.
A further series concerns anthrax spores. On the set-up: species or system murine (A/J mice). The conditions noted are these: mouse, in vivo.
In the next series the test system is IL-1beta. Format: cell-based.
The test system of another series is IL-10. Format: cell-based.
The subject of series [2] is IL-1beta, IL-6, IL-10, TNF-alpha, Toll-Like Receptors (TLRs), NODs, SOCS. Format: cell-based.
The next series concerns IL-6. On the set-up: species or system cotton rat. Particulars: rat, in vivo.
Series [3] relates to H3N2/Wuhan influenza virus. Also on record: species or system cotton rat. The conditions noted are these: rat, in vivo.
The conditions of series [4]: mouse, in vivo.

Several values for one entry are separate records, joined by “and”; a condition that tells them apart may be missing. Equal values may be shown once. Entries after “also recorded” stand apart in the source; their conditions may differ.

On to “Sar^9, Met(O2)^11-Substance P [Viprovex]”, for which, in series [1], the inhibition of lethality result is on record as “dose dependent inhibition of lethality” and the “treated animals that died” value is 2 of the 6. For the same substance, in the series with anthrax spores, the “increase in survival rates” value amounted to 240%; the “protection against anthrax-induced death” value is reported as “partially protect against anthrax-induced death”; the “protection from death, time course” value is “clearly protected from death as early as 5 days post-exposure; also recorded: maintained survival from approximately day 10 onward”; the survival rate was 68.8% and 62.5%. Further, the “survival, of the animals that would otherwise have died” value in the series on anthrax spores is recorded as 20-70%. Besides, the “IL-1 mRNA increase relative to IL-6 increase” value in the series with IL-1beta was found to be 28 ×. Besides, in the series on IL-10, the “IL-10 mRNA increase relative to IL-6 increase” value was 21 ×. Moreover, in series [2], the “elevation of components of the host immune system” value was “elevation of cytokines, interleukins, TLR, defensins and other components of immune surveillance; also recorded: elevate multiple components of the host immune system”. Further, in the series on IL-6, the “IL-6 levels in the lungs” value is reported as “do not significantly increase”; the “Il-6, single animals” value was 1.623 and 1.253 and 2.458 and 2.167 and 3.013 and 0 and 2.416 and 7.483 and 1.791. The “efficacy against influenza virus infection” value in series [3] is reported as “provides therapeutic efficacy in animal models of infection by influenza virus; also recorded: more resistant to the effects of H3N2/Wuhan influenza virus”. In series [4], the toxicity entry is given as “no toxicity was observed”.
